The values below are quoted from earlier work in patent US20220212015A1, “SURGICAL SYSTEM AND METHODS OF USE” (priority 2021, published 2022).

For this data set, the system named is myofibroblast formation. The settings on record: Ajmal et al. (2003).

With `O=S(=O)([O-])CCS.[Na+]` [MESNA, sodium 2-mercaptoethane sulfonate], the “effect on myofibroblast formation” value is “diminish myofibroblast formation”.
